Patent US20060079453A1, “Hla binding peptides and their uses” (priority 2002, published 2006)
Where two headings read alike, the source gives them in different places. No end group written: not given here.

Tests used:
HLA-A*3002 = HLA-A*3002 (Homo sapiens, UniProt P04439, D101N/D140H/D185E/E176R/F33S/G80R/H175R/K168Q/Q94H/R138E/R41S/V100E); test: biochemical; format: binding
HLA-DR DRB1*0301 (DR3) = HLA-DR DRB1*0301 (DR3) (Homo sapiens, UniProt P01903+P01911, A100K/A102G/A103R/A169T/F55Y/I96L/K41T/L162R/M171V/P40S/Q125H/Q178H/Q39Y/R42S/S66N/T106N/T262R/W38E/Y61H); test: biochemical; format: binding
HLA-DR DRB1*0401 (DR4) = HLA-DR DRB1*0401 (DR4) (Homo sapiens, UniProt P01903+P01911, A100K/A169T/F76Y/I96L/K127E/L162R/M171V/N62H/P40V/Q125Y/R42H/S133A/S149N/S66Y/V115G/V209L/W38E); test: biochemical; format: binding; settings: DRB1 *0401
HLA-DR DRB1*0405 (DR4) = HLA-DR DRB1*0405 (DR4) (Homo sapiens, UniProt P01903+P01911, A100R/A169T/D86S/F76Y/I96L/K127E/L162R/M171V/N62H/P40V/Q125Y/R42H/S133A/S149N/S66Y/V115G/V209L/W38E); test: biochemical; format: binding; settings: DRB1 *0405
HLA-DR DRB1*0701 (DR7) = HLA-DR DRB1*0701 (DR7) (Homo sapiens, UniProt P01903+P01911, A100R/A102G/A103Q/D57E/D86V/E43K/F76Y/K127E/L162R/M171V/P40G/Q125H/Q99D/R33Q/R42Y/R54Q/S133A/S66F/T210M/V115G/Y107V/Y59L/Y89S); test: biochemical; format: binding; settings: DRB1 *0701
HLA-DR DRB1*0802 (DR8) = HLA-DR DRB1*0802 (DR8) (Homo sapiens, UniProt P01903+P01911, A100R/A103L/A169T/F76Y/H45Y/I96F/K41T/L162R/M171V/P40S/Q125H/Q178H/Q39Y/Q99D/R218S/R42G/S66Y/V115G/W38E); test: biochemical; format: binding
HLA-DR DRB1*0901 (DR9) = HLA-DR DRB1*0901 (DR9) (Homo sapiens, UniProt P01903+P01911, A100R/A103E/D57H/D86V/F55Y/F60I/F76Y/I96F/K127E/L162R/M171V/P40D/Q125H/Q99R/R33Q/R42F/S133A/S66N/T210M/V115G/W38K/Y107V/Y59G/Y89S); test: biochemical; format: binding; settings: DRB1 *0901
HLA-DR DRB1*1101 (DR11) = HLA-DR DRB1*1101 (DR11) (Homo sapiens, UniProt P01903+P01911, A100R/A169T/A87E/I96F/K41T/L162R/M171V/P40S/Q125H/Q178H/Q39Y/Q99D/R42S/S66Y/T262R/V115G/W38E); test: biochemical; format: binding; settings: DRB1 *1101
HLA-DR DRB1*1302 (DR13) = HLA-DR DRB1*1302 (DR13) (Homo sapiens, UniProt P01903+P01911, A100E/A169T/K41T/L162R/M171V/P40S/Q125H/Q178H/Q39Y/Q99D/R42S/S66N/T262R/V115G/W38E/Y61H); test: biochemical; format: binding; settings: DRBI *1302
HLA-DR DRB1*1501 (DR15) = HLA-DR DRB1*1501 (DR15) (Homo sapiens, UniProt P01903+P01911); test: biochemical; format: binding; settings: DRBI *1501
HLA-DR DRB3*0101 (DR52) = HLA-DR DRB3*0101 (DR52) (Homo sapiens, UniProt P01903+P79483); test: biochemical; format: binding
HLA-DR DRB4*0101 (DR53) = HLA-DR DRB4*0101 (DR53) (Homo sapiens, UniProt P01903+P13762, G164S); test: biochemical; format: binding; settings: DRB4 *0101
HLA-DR DRB5*0101 (DR51) = HLA-DR DRB5*0101 (DR51) (Homo sapiens, UniProt P01903+Q30154); test: biochemical; format: binding; settings: DRB5 *0101
HLA-DR DRB1*0101 (DR1) = HLA-DR DRB1*0101 (DR1) (Homo sapiens, UniProt P01903+P01911, A100R/D57E/F55L/F60I/F76Y/I96L/L162R/M171V/P40L/Q125E/R42F/V115G/Y59C); test: biochemical; format: binding; settings: DRB1 *0101
HLA-A*2902 = HLA-A*2902 (Homo sapiens, UniProt P04439, A270S/D101N/D185E/E176V/E277Q/E87Q/F33T/G231S/H175R/I121M/I218V/I322F/K168Q/L300P/L318F/M331R/P208A/P217A/Q86L/T323A/T345S/V100A/V358M); test: MHC molecular binding / Capture assay, IC50: A*2902; settings: Binding affinity to A*2902 (expressed as an IC50)

Sequence of HLA-DR DRB1*1101 (DR11) (P01903 26-254 limits assumed, other chains not shown): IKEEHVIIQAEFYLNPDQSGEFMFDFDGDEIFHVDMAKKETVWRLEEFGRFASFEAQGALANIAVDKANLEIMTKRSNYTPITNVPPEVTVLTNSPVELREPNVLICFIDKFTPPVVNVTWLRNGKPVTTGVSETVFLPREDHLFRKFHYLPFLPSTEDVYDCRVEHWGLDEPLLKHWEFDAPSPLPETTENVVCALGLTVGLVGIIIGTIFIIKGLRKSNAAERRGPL
Sequence of HLA-DR DRB1*0301 (DR3) (P01903 26-254 limits assumed, other chains not shown): as above
Sequence of HLA-DR DRB1*1302 (DR13) (P01903 26-254 limits assumed, other chains not shown): as above

Molecule	IC50 (HLA-A*3002) [µM]	IC50 (HLA-DR DRB1*0301 (DR3)) [µM]	IC50 (HLA-DR DRB1*0401 (DR4)) [µM]	IC50 (HLA-DR DRB1*0405 (DR4)) [µM]	IC50 (HLA-DR DRB1*0701 (DR7)) [µM]	IC50 (HLA-DR DRB1*0802 (DR8)) [µM]	IC50 (HLA-DR DRB1*0901 (DR9)) [µM]	IC50 (HLA-DR DRB1*1101 (DR11)) [µM]	IC50 (HLA-DR DRB1*1302 (DR13)) [µM]	IC50 (HLA-DR DRB1*1501 (DR15)) [µM]	IC50 (HLA-DR DRB3*0101 (DR52)) [µM]	IC50 (HLA-DR DRB4*0101 (DR53)) [µM]	IC50 (HLA-DR DRB5*0101 (DR51)) [µM]	IC50 (HLA-DR DRB1*0101 (DR1)) [µM]	IC50 (HLA-A*2902) [µM]	IC50 (HLA-A*3002; read-out: Binding affinity to A*3002 (expressed as an IC50)) [µM]
CYSLYGTTF	7.82															
ITEYRHYNY	0.418															
ICLLLIQSWLEPVQF		50.9	11.3	0.071	0.643	> 33.3	> 59.5	> 15.4	0.954	1.77	188	0.049	> 9.51			
RLRIVRGTQLFEDNYAL		11.3	8.39	1.02	0.012	6.32	1.83	2.07	0.0052	0.031	1.2	0.12	0.046	0.0048		
SDSNIYDLLKDLEEG		124	17.5	0.137	> 85	> 33.3	50.1	> 15.4	> 16.2	> 86.7	> 18.7	24.3	> 9.51	> 18		
QHLTGSHLVEALYLV		50.3	> 16.1	7.42	0.038	> 54.4	42.3	> 10.5	6.86	0.184	4.03		23.7	0.0093		
YLVCGERGFLYTPKT		2.03	> 20.5	> 30.1	12.8	> 54.4	0.124	> 1110	2.12	> 25.6	> 95.2	33.1	0.971	0.155		
YLVCGERGFFYTPKT		37.2	1.44	0.73	64.6	> 54.4	1.52	> 10.5	9.27	10.7	92.8	34.5	95.2	11.1		
DMDKVETFLRIVQTR		11.2	2.03	0.454	0.436	0.183	51.5	0.206	3.38	> 86.7	13.7	0.19		1.11		
ELEASISGKY															21.9	
KLQTYPRTNTGSGTP		> 205	> 26.5	> 9.81	> 99.2	> 51.6	> 29.2	8.21	0.987	0.52	> 263	> 105	> 14	> 10.1		
FVNQHLCGSHLVEAL [FVNQHLCGSHLVEAL]		> 187	19.2	> 20.7	0.679	> 54.4	> 63	> 1110	10.6	1.2	> 95.2		47.2	0.583		
CC(C)C[C@H](NC(=O)[C@H](C)NC(=O)[C@H](CO)NC(=O)[C@H](C)NC(=O)[C@@H](NC(=O)[C@H](CC(=O)O)NC(=O)[C@H](CC(C)C)NC(=O)[C@H](CC(C)C)NC(=O)[C@@H](N)CC(=O)O)[C@@H](C)O)C(=O)N[C@@H](Cc1ccc(O)cc1)C(=O)O															0.074	
TTVLGKLSQELHKLQ		92.8		> 9.81		16.2	23.8	3.52	12.7	0.525	> 263	0.241	10.6			
TCVLGKLSQELHKLQ		29.5	14.8	9	18.7	7.66	17.9	1.4	> 12.6	2.01	> 263	0.163	3.99	0.026		
VTGERGFFYTPKTRR		3.02	7.23	13.4	27.8	9.41	> 300	10.1	25.4	2.82	244	> 29.8	0.54	18.9		
LHKLQTYPRTNTGSG		> 205		> 7.4	40.2	1.62	> 29.2	6.09	> 12.6	0.157	> 263	22.9	0.04	2.12		
PVDPNLEPY	7.12															
KEDSHTAWTIVRVEI		44.8	0.746	0.302	0.035	> 79	6.08	7.44	3.05	1.99	56.2	0.018	0.575	1.91		
QLAFDTYQEFEQNPQ		7.85	28.6	4.84	21.1	> 33.3	> 59.5	> 15.4	19.7	> 86.7	0.738	> 32.8	> 9.51	> 18		
VCGERGFFYTPKTRR		1.99	> 20.5	> 15.1	5.49	0.419	14.4	3.82	34.7	> 25.6	17.4	> 31	0.092	9.62		
ALLKNYGLLYTFRKD		5.98	0.16	0.303	5.92	3.62	2.63	1.74	0.00089	0.0065	0.05	1.34	0.029	0.019		
LSEYYDXD1Y																0.489
EHTSLNENITVPDTK		33.6		1.24	37.2	> 16.3	> 78.9	> 408	0.013	11.1	> 42.2	> 29	5.55	43.9		
